Earlier results in patent US11911505B2, “Liquid formulations of hypoglycaemic sulfonamides” (AMMTEK, priority 2012, dated 2024).
Converted amounts (≈) assume the structure as drawn.

Details: 27° C.

Point of comparison: `COc1ccc2c(c1)C(=O)N(CCc1ccc(S(=O)(=O)NC(=O)NC3CCCCC3)cc1)C(=O)C2(C)C` [gliquidone], solubility in water 2 µg/mL (≈ 3.79 µM). Against it:
- CC(=O)c1ccc(S(=O)(=O)NC(=O)NC2CCCCC2)cc1 [acetohexamide] — 24-fold higher, 48 µg/mL (≈ 148 µM)
- CCC1=C(C)CN(C(=O)NCCc2ccc(S(=O)(=O)NC(=O)N[C@H]3CC[C@H](C)CC3)cc2)C1=O [glimepiride] — 19-fold higher, 38 µg/mL (≈ 77.5 µM)
